≈ marks a conversion by molar mass, not a printed value. Marks after values point to notes of the source that are not given here.
How the values were obtained:
L1210 Cells = experiment: Cytotoxicity against L1210 cells; type: cell-based; conditions: Mus musculus, read-out: ID50 (the source's name)
Mouse Melanoma B16 = experiment: Animal tumor screening, mouse melanoma B16; type: in vivo; parameters: key: -X= Borderline activity shown.; X= Activity shown. The initial endpoint is less stringent and is indicative of statistical significance.; XX= Outstanding activity shown and a proportion of "cures" produced. The stringent endpoint is indicative of sufficient antitumor selectivity to warrant consideration for development toward clinical trial.; No= No activity shown
Mouse Mammary CD8F1 = experiment: Animal tumor screening, mouse mammary CD8F1; type: in vivo; parameters: key: -X= Borderline activity shown.; X= Activity shown. The initial endpoint is less stringent and is indicative of statistical significance.; XX= Outstanding activity shown and a proportion of "cures" produced. The stringent endpoint is indicative of sufficient antitumor selectivity to warrant consideration for development toward clinical trial.; No= No activity shown; conditions: treatment started 34 days after tumor implant (advanced-stage tumor)
Human Lung Xenograft = experiment: Animal tumor screening, human lung xenograft; type: in vivo; parameters: key: -X= Borderline activity shown.; X= Activity shown. The initial endpoint is less stringent and is indicative of statistical significance.; XX= Outstanding activity shown and a proportion of "cures" produced. The stringent endpoint is indicative of sufficient antitumor selectivity to warrant consideration for development toward clinical trial.; No= No activity shown
Mluse Lewis Lung = experiment: Animal tumor screening, mouse Lewis lung; type: in vivo; parameters: key: -X= Borderline activity shown.; X= Activity shown. The initial endpoint is less stringent and is indicative of statistical significance.; XX= Outstanding activity shown and a proportion of "cures" produced. The stringent endpoint is indicative of sufficient antitumor selectivity to warrant consideration for development toward clinical trial.; No= No activity shown
Mouse Leukemia L1210 = experiment: Animal tumor screening, response of L1210 leukemia in mice; type: in vivo; parameters: key to Activiity: -X= Borderline activity shown.; X= Activity shown. The initial endpoint is less stringent and is indicative of statistical significance.; XX= Outstanding activity shown and a proportion of "cures" produced. The stringent endpoint is indicative of sufficient antitumor selectivity to warrant consideration for development toward clinical trial.; No= No activity shown; conditions: for T/C(%) / "Cures": Daily x 9
Human Mammary Xenograft = experiment: Animal tumor screening, human mammary xenograft; type: in vivo; parameters: key: -X= Borderline activity shown.; X= Activity shown. The initial endpoint is less stringent and is indicative of statistical significance.; XX= Outstanding activity shown and a proportion of "cures" produced. The stringent endpoint is indicative of sufficient antitumor selectivity to warrant consideration for development toward clinical trial.; No= No activity shown
Mouse Colon 38 = experiment: Animal tumor screening, mouse colon 38; type: in vivo; parameters: key: -X= Borderline activity shown.; X= Activity shown. The initial endpoint is less stringent and is indicative of statistical significance.; XX= Outstanding activity shown and a proportion of "cures" produced. The stringent endpoint is indicative of sufficient antitumor selectivity to warrant consideration for development toward clinical trial.; No= No activity shown
Mouse Leukemia P3888 = experiment: Animal tumor screening, mouse leukemia P388; type: in vivo; parameters: key: -X= Borderline activity shown.; X= Activity shown. The initial endpoint is less stringent and is indicative of statistical significance.; XX= Outstanding activity shown and a proportion of "cures" produced. The stringent endpoint is indicative of sufficient antitumor selectivity to warrant consideration for development toward clinical trial.; No= No activity shown

`CC(=O)OCC=CC=CC=CC(CC(OP(=O)(O)O)C(C)(O)C=CC1CC=CC(=O)O1)OC(C)=O.[Na]` (stereo not shown) [CL 1565-A Diacetate, Sodium Salt, 6-[6,13-Bis(acetyloxy)-3-hydroxy-3-methyl-4-(phosphonooxy)-1,7,9,11-tridecatetraenyl]-5,6-dihydro-2H-pyran-2-one, sodium salt] gave an IC50 (L1210 Cells) of about 6 mg/L.

In the case of `CC(O)(C=CC1CC=CC(=O)O1)C(O)CC(O)C=CC=CC=CCO` (stereo not shown) [CL 1565-A alcohol, 5,6-Dihydro-6-(3,4,6,13-tetrahydroxy-3-methyl-l,7,9, 11-tridecatetraenyl)-2H-pyran-2-one], the IC50 (L1210 Cells) is reported as 2.5 mg/L (≈ 7.13 µM).

For `CC(O)(C=CC1CC=CC(=O)O1)C(CC(O)C=CC=CC=CCO)OP(=O)(O)O` (stereo not shown) [CL 1565-A, 5,6-dihydro-6-(3,6,13-trihydroxy-3-methyl-4-(phosphonooxy)-1,7,9,11-tridecatetraenyl)-2H-pyran-2-one], the Activiity (Mouse Melanoma B16) was “No”, the Activiity (Mouse Mammary CD8F1) was “Xa” and the Activiity (Human Lung Xenograft) was “No”. The Activiity (Mluse Lewis Lung) was “No”, the Activiity (Mouse Leukemia L1210; Mouse Leukemia L1210) was “XX (curative)” and the “T/C(%)” value (Mouse Leukemia L1210; Test 1, 6.25 mg/kg/dose) was 207%. For the same compound, the “"Cures"” value (Mouse Leukemia L1210; Test 1, 6.25 mg/kg/dose, 30-day survivors are considered cures) was 0/6^e, the “T/C(%)” value (Mouse Leukemia L1210; Test 2, 3.12 mg/kg/dose) was 191% and the “"Cures"” value (Mouse Leukemia L1210; Test 2, 3.12 mg/kg/dose, survivors at completion of observation period) was 0/6. The “T/C(%)” value (Mouse Leukemia L1210; Test 2, 6.25 mg/kg/dose) was 194%, the “"Cures"” value (Mouse Leukemia L1210; Test 2, 6.25 mg/kg/dose, survivors at completion of observation period) was 1/6 and the “T/C(%)” value (Mouse Leukemia L1210; Test 2, 12.50 mg/kg/dose) was 337%. The “"Cures"” value (Mouse Leukemia L1210; Test 2, 12.50 mg/kg/dose, survivors at completion of observation period) was 3/6, the “T/C(%)” value (Mouse Leukemia L1210; Test 3, 1.56 mg/kg/dose) was 150% and the “"Cures"” value (Mouse Leukemia L1210; Test 3, 1.56 mg/kg/dose, survivors at completion of observation period) was 0/6. For the same compound, the “T/C(%)” value (Mouse Leukemia L1210; Test 3, 3.12 mg/kg/dose) was 195%, the “"Cures"” value (Mouse Leukemia L1210; Test 3, 3.12 mg/kg/dose, survivors at completion of observation period) was 0/6 and the “T/C(%)” value (Mouse Leukemia L1210; Test 3, 6.25 mg/kg/dose) was 216%. The “"Cures"” value (Mouse Leukemia L1210; Test 3, 6.25 mg/kg/dose, survivors at completion of observation period) was 0/6, the “T/C(%)” value (Mouse Leukemia L1210; Test 3, 12.50 mg/kg/dose) was 246% and the “"Cures"” value (Mouse Leukemia L1210; Test 3, 12.50 mg/kg/dose, 45-day observation period) was 0/6^f. The “T/C(%)” value (Mouse Leukemia L1210; Test 4, 3.12 mg/kg/dose) was 194%, the “"Cures"” value (Mouse Leukemia L1210; Test 4, 3.12 mg/kg/dose, survivors at completion of observation period) was 0/6 and the “T/C(%)” value (Mouse Leukemia L1210; Test 4, 6.25 mg/kg/dose) was 236%. The “"Cures"” value (Mouse Leukemia L1210; Test 4, 6.25 mg/kg/dose, survivors at completion of observation period) was 1/6, the “T/C(%)” value (Mouse Leukemia L1210; Test 4, 12.50 mg/kg/dose) was 268% and the “"Cures"” value (Mouse Leukemia L1210; Test 4, 12.50 mg/kg/dose, survivors at completion of observation period) was 0/6^g. For the same compound, the “curative effect in the L1210 tumor mouse model” value (Mouse Leukemia L1210; result in words) was “curative”, the “survival period of mice inoculated with mouse leukemia L1210” value (Mouse Leukemia L1210; result in words) was “significantly prolongs the survival period” and the Activiity (Human Mammary Xenograft) was “-X”. The Activiity (Mouse Colon 38) was “X” and the Activiity (Mouse Leukemia P3888) was “X”.

From patent EP0128651A2, “Pyranones and related compounds and methods for their production and use” (WARNER-LAMBERT COMPANY, priority 1983, dated 1984)
